According to a melting point compilation (Tetko et al.; mined from patent text by program, amines drawn as free bases though some values may be those of a salt):

SMILES	melting point [°C]
CCN(CC)CCNC(=O)c1ccc(S(N)(=O)=O)cc1	174 to 176
CCOc1ccc(-c2ncc[nH]2)cc1	168 to 169
CCc1noc(CC(=O)c2ccccc2)c1C(=O)NC	134 to 136
Clc1nc(Cl)c2cc(N3CCCCC3)ccc2n1	101 to 102
CC(C)Cn1c(=O)n(C)c(=O)c2cc(Cc3ccccc3)sc21	72 to 73
CCCONC(=O)c1c(Cl)ccc(C(=O)OC)c1Cl	80 to 81
CCCCc1cc2cc(NS(C)(=O)=O)ccc2o1	105 to 106
O=c1ccn(-c2cc3[nH]c(=O)c(=O)[nH]c3cc2[N+](=O)[O-])cc1F	> 300
CC(C)(COc1ccc2nccn2n1)CS(N)(=O)=O	165 to 167
CC(=O)/C(=C(/Br)I)c1ccccc1	53 to 55
CC(C)[C@@H]1C[C@@H]([C@H](CC2CCCCC2)N=[N+]=[N-])OC1=O	38.5 to 39
O=c1ccccn1[C@@H]1c2ccccc2OCC[C@H]1O (relative stereo)	232 to 234
O=c1[nH]c(=O)n(C2OC(CBr)C(O)C2O)cc1C=CBr (stereo not drawn)	201
CNC(=O)c1ccccc1Sc1ccc(F)cc1[N+](=O)[O-]	111 to 113
N#Cc1ccc(-c2cccc(OC3SCC(O)C(O)C3O)c2)cn1 (stereo not drawn)	179
Cc1c(Cc2cccc3ccccc23)c(=O)oc2cc(OCc3nnn[nH]3)cc(OCc3nnn[nH]3)c12	164 to 174
COC(=O)c1ccc(Nc2nc(Nc3ccc(C(=O)OC)cc3)nc(Nc3ccc(C(=O)OCCOc4ccc(C(C)(C)CC(C)(C)C)cc4)cc3)n2)cc1	157 to 160
CCOc1ccc2c(c1)n(C1CCOCC1)c(=O)n2Cc1ccc(NC(=O)N(CC)CC)cc1OC	168
CN(C)C(=O)C1Cc2c(c(Cl)cc(F)c2N2C(=O)C3=C(CCCC3)C2=O)O1 (stereo not drawn)	190 to 193
CON=C(C)CCc1nc2c(N)nc3ccccc3c2n1CC(C)(C)O	182 to 184
COc1cc2c(cc1S(=O)(=O)c1ccccc1)[C@@H](N1CCCCC1=O)[C@H](O)C(C)(C)O2 (relative stereo)	157 to 158
CC(C)(C)c1cc2c(c(C(C)(C)C)c1O)CC1(CCCCC1)S2	128

SMILES	melting point [°C]
CCC1(N2C(=O)c3ccccc3C2=O)C(=O)NC(=O)N(C2CCCCC2)C1=O (stereo not drawn)	248 to 253
CN(CC1=C(C#N)C(c2cccc3nonc23)c2c[nH]nc2N1)C(=O)OC(C)(C)C (stereo not drawn)	207
CCOC(=O)COc1cc(-n2nc(C)c(Cl)c2C)c(F)cc1Cl	101 to 104
CC(C)C(=O)CCC(C)C1CCC2C3CC=C4CC(O)CCC4(C)C3CCC12C (stereo not drawn)	135 to 136
C=C[C@@]12CCC[C@@H](C#N)[C@@H]1C(=O)CC2	41 to 42
CC(C)C(=O)O[C@H]1[C@H](C)OC(=O)[C@@H](NC(=O)OC(C)(C)C)COC(=O)[C@@H]1CI	168 to 171
CC1(C)Oc2ccc(C#Cc3ccccc3)cc2[C@@H](N)[C@@H]1O (relative stereo)	162 to 164
CCCN1CCc2c(cccc2NC(=O)c2ccc(OC)c(OC)c2)C1	146 to 147
Oc1cccc(OCCn2ccnc2)c1	125 to 127
NNC(=O)c1cnn(-c2ccc(N(CCO)CCO)nn2)c1N	217 to 219
C=CCOC(=O)NC12CC3CC(CC(C3)C1)C2	56 to 58
CCCCCCCNC(=O)Nc1c(C(=O)NC2CCN(C(c3ccccc3)c3ccccc3)CC2)cccc1C(C)C	209 to 212
CC1(C)OC(=S)Nc2ccc(-c3sccc3C#N)cc21	194 to 195
Cn1cc(C(F)(F)F)ccc1=O	125 to 129
COc1ccc(CCNC(=O)CCc2ccccc2C(=O)NCCc2ccccc2)cc1OC	122 to 123
COc1ccc2c(c1Br)CCC1CN(C)CC21 (stereo not drawn)	144 to 146
CC(C)(C)c1cc(C(=O)c2nccs2)cc(C(C)(C)C)c1O	106 to 108
Cc1ccc([C@@H](O)[C@@H]2[C@@H](C)CCCC2(C)C)cc1	78 to 79
CCCCCCCCC[C@]1(C)OO[C@@H]2C[C@H]1CC(=O)[C@@H]2C	39
Nc1ccccc1Cc1n[nH]c(Cl)n1	162 to 165
CCO/C(=N/O)C1Cc2cc(C(=O)c3ccccc3F)c(O)c(C)c2O1 (stereo not drawn)	70 to 71
O=C(Nc1ccnn1-c1c(F)c(F)c(C(F)(F)F)c(F)c1F)C(Cl)Cl	112 to 114

SMILES	melting point [°C]
CCCCCCCCCCOc1ccc(C(=O)O)cc1C12CC3CC(CC(C3)C1)C2	151 to 152
O=c1c2cnc3cc4c(cc3c2sn1CCc1ccccn1)OCO4	200 to 201
CCCCCCCCCCCCCCC(O)(CCCCC(=O)O)CCCCC(=O)O	79 to 80
O=c1ccoc(C(O)c2ccc(F)cc2)c1O (stereo not drawn)	154 to 156
COc1ccc2c(CCCC(=O)O)nnc(-c3nccs3)c2c1	218 to 220
O=C(c1cccnc1)N1N=CCC1c1ccco1 (stereo not drawn)	91 to 93
O=C(Nc1ccnnc1)Oc1ccccc1	184 to 185
CCCOc1ccc(S(C)(=O)=O)cc1-c1nc(OC)c2[nH]nc(CC)c2n1	137 to 139
CCOC(=O)c1cc(-c2ccc(OC)cc2)nn(CC2CCCC2)c1=O	63.6 to 64.4
CCCCCc1cccn1NS(=O)(=O)C1CCCC=C1C(=O)OCC (stereo not drawn)	60 to 61
O=C(CC1COC1)N[C@H]1CC[C@H](CCN2CCN(c3nccc4c3CCO4)CC2)CC1	195
CC=CCn1c(C)c(C)c2cnnc(SCc3ccc(F)cc3F)c21	122 to 127
O=C(OCC1OC(n2cc(F)c(=O)[nH]c2=O)CC1OCc1ccccc1)c1cccnc1 (stereo not drawn)	130 to 132
COC(=O)c1ccc(Cn2nc(C(C)(C)C)cc2O)cc1	161 to 162
CCCCc1ncc(C=O)n1Cc1ccc(C(=O)OC)c(Cl)c1Cl	94 to 96
CCCCS(=O)(=O)NCc1ccc(C(=O)CN2CCN(c3ccncc3)CC2)cc1	101 to 103
CC(C)(C)C(=O)Nc1cc(Cl)c(Cl)cn1	105 to 106
COC1=C(OC)C(=O)C2=C(CC(CO)(CCCCCCCCO)C2)C1=O	59 to 61
C[C@H]1C[C@@H](NC(=O)C(F)(F)F)CC(O)O1 (stereo partly drawn)	159 to 160
O=C(NC(Cc1ccccc1)P(O)O)OCc1ccccc1 (stereo not drawn)	137
COc1ccc(CCC(=O)CCI)cc1	38 to 42

The remaining lines, values ahead:

melting point [°C]	SMILES
234 to 236	CNC(=O)Nc1ccc(Cc2cc(C)c(C(=O)c3ccc(Cl)cc3)n2C)nc1
216 to 217	O=C(NC(=S)Nc1nc(-c2ccc3c(c2)CCCC3)cs1)c1cccc2ccccc12
83	Cc1ccccc1OCc1ccccc1[N+](=O)[O-]
164 to 165	COc1ccc(-n2c(-c3cc(-c4ccccc4)c(N4CCOCC4)s3)nc3ccccc3c2=O)cc1
128 to 130	COc1ccc(-c2nn(CC3CC3)c(=O)cc2-c2ccncc2)cc1
251	CCN(CC)C1CCN(c2ccc(-c3[nH]nc4c3C(=O)c3c(NC(=O)NN5CCOCC5)cccc3-4)cc2)CC1
203 to 204	O=c1oc(-c2ccc(Sc3ccccc3)cc2)nc2sccc12
190 to 191	CCN(CC)CCN(CCN1CCCCC1)c1ccc(-c2nc3ccccc3[nH]2)cc1
151 to 154	COc1ccc2[nH]c3c(c2c1)CCSc1ccccc1-3
122 to 124	Nc1ccc(-c2ccc(N)cc2C(=O)OCCCCCCOc2ccc(-c3ccccc3)cc2)c(C(=O)OCCCCCCOc2ccc(-c3ccccc3)cc2)c1
106 to 109	CC(=O)c1ccc(-c2ccccc2[N+](=O)[O-])cc1
150	CCN1CCN([C@@H](CNS(=O)(=O)c2ccc(OCc3cc(C)nc4ccccc34)cc2)C(=O)NO)CC1
185 to 193	COc1ccc(-c2sc3c(c2CN(C)Cc2ccccc2)c(=O)c(C(C)=O)cn3Cc2ccccc2F)cc1
90 to 92	CC(=O)c1nc2cccc(OC(F)(F)F)c2cc1OCc1ccccc1
157 to 160	Cc1cc(C(O)(c2ccc(Cl)cc2)C(F)(F)F)ccc1N (stereo not drawn)
166 to 169	O=C(CC(c1ccccc1)c1ccccc1)N1CCC(N2Cc3ccccc3C2=O)CC1
72 to 74	O=C(Nc1ccc(Cl)c(C(F)(F)F)c1)N1NC(c2ccccc2)C(c2ccccc2)C1=O (stereo not drawn)

melting point [°C]	SMILES
177 to 179	CS(=O)(=O)c1ccc(-c2sc(-c3ccccc3Cl)nc2-c2ccc(Cl)cc2)cc1
229 to 230	Cc1cc(CO)ccc1NC(=O)N1CCN(c2ccc(NC(=O)Nc3ccccc3F)cc2)CC1
75 to 80	CC(C)c1ccc(S(=O)(=O)c2ccc(F)cc2)c(C(C)C)c1
104 to 105	Cc1cc(F)ccc1N(C)C(=O)c1cccc(S(=O)(=O)N(C)c2ccc(Br)cc2)c1
203 to 205	CN(C)C=CC(=O)c1ccc(C(=O)N2Cc3cccn3Cc3ccccc32)cc1
144 to 146	CCC(CC)(c1ccccc1F)c1c[nH]c2c(NS(C)(=O)=O)cccc12
86 to 88	Cc1cc(CCCCCOc2ccc(-c3ccco3)cc2)on1
160	COc1ccc(C(C)(c2ccc(OC)cc2)c2ccc(OC)cc2)cc1
231 to 233	Cc1cc(NC(=O)c2ccccc2C)ccc1C(=O)O
112 to 113	CCCN1C(=O)N2C[C@@H](Cc3ccccc3)N=C2c2c1nc(CCl)n2Cc1ccccc1
69 to 71	O=C(OCc1ccccc1)[C@@H]1COC(c2ccccc2OCc2ccccc2)=N1
141 to 143	COC(=O)CCCc1c(-c2ccc(F)cc2)[nH]c2ccc(-c3ccc(O)cc3)cc12
158 to 159	CS(=O)CCNC(=O)c1cccc(-c2cccc(Oc3cc(Cl)cc(Cl)c3)n2)c1 (stereo not drawn)
100	Cc1cc(-n2ccnc2)c2cccc(OCc3c(Cl)ccc(S(=O)(=O)N4CCC[C@H]4C(=O)NCC4CC4)c3Cl)c2n1
179 to 180	O=C1CC(c2cccc(-n3cnnn3)c2)=Nc2ccc(-c3ccccc3F)cc2N1
182 to 183	COc1ccc(-c2c(C)ncc(C#N)c2Nc2cccc3[nH]ccc23)cc1OC
